Results from ChEMBL document CHEMBL3734719, “Discovery of highly potent triazoleantifungal agents with piperidine-oxadiazole side chains” (2015).
In brackets after ≈: the same amount, converted by molar mass.

Columns and labels:
Format in all cases: functional
Candida parapsilosis = assay: Antifungal activity against Candida parapsilosis after 48 hrs by spectrophotometry; conditions: Lodderomyces parapsilosis
Aspergillus fumigatus = assay: Antifungal activity against Aspergillus fumigatus after 48 hrs by spectrophotometry
Trichophyton rubrum = assay: Antifungal activity against Trichophyton rubrum after 48 hrs by spectrophotometry
Cryptococcus neoformans = assay: Antifungal activity against Cryptococcus neoformans after 48 hrs by spectrophotometry
Nakaseomyces glabratus = assay: Antifungal activity against Candida glabrata after 48 hrs by spectrophotometry
Candida albicans [1] = assay: Antifungal activity against Candida albicans after 48 hrs by spectrophotometry
Nannizzia gypsea = assay: Antifungal activity against Microsporum gypseum after 48 hrs by spectrophotometry
Candida albicans [2] = assay: Antifungal activity against fluconazole-resistant Candida albicans 0710922 after 48 hrs by spectrophotometry; conditions: Candida albicans, 0710922, 48 h
Candida albicans [3] = assay: Antifungal activity against fluconazole-resistant Candida albicans 103 after 48 hrs by spectrophotometry; conditions: Candida albicans, 103, 48 h
Candida albicans [4] = assay: Antifungal activity against fluconazole-resistant Candida albicans 805 after 48 hrs by spectrophotometry; conditions: Candida albicans, 805, 48 h

SMILES | MIC80 (Candida parapsilosis) | MIC80 (Aspergillus fumigatus) | MIC80 (Trichophyton rubrum) | MIC80 (Cryptococcus neoformans) | MIC80 (Nakaseomyces glabratus) | MIC80 (Candida albicans [1]) | MIC80 (Nannizzia gypsea) | MIC50 (Candida albicans [2]) | MIC80 (Candida albicans [2]) | MIC50 (Candida albicans [3]) | MIC80 (Candida albicans [3]) | MIC50 (Candida albicans [4]) | MIC80 (Candida albicans [4])
Cc1ccccc1-c1nnc(C2CCN(CC(O)(Cn3cncn3)c3ccc(F)cc3F)CC2)o1 (configuration not stated) | 4 µg/mL (≈ 8.32 µM) | 8 µg/mL (≈ 16.6 µM) | 16 µg/mL (≈ 33.3 µM) | 4 µg/mL (≈ 8.32 µM) | 8 µg/mL (≈ 16.6 µM) | 0.125 µg/mL (≈ 0.26 µM) | 16 µg/mL (≈ 33.3 µM) |  |  |  |  |  | 
OC(CN1CCC(c2nnc(-c3c(F)cccc3F)o2)CC1)(Cn1cncn1)c1ccc(F)cc1F (configuration not stated) | 0.5 µg/mL (≈ 0.995 µM) | 0.5 µg/mL (≈ 0.995 µM) | 2 µg/mL (≈ 3.98 µM) | ≤ 0.125 µg/mL | 0.5 µg/mL (≈ 0.995 µM) | 0.063 µg/mL (≈ 0.125 µM) | 2 µg/mL (≈ 3.98 µM) |  |  |  |  |  | 
OC(CN1CCC(c2nnc(-c3ccco3)o2)CC1)(Cn1cncn1)c1ccc(F)cc1F (configuration not stated) | 0.5 µg/mL (≈ 1.1 µM) | 0.5 µg/mL (≈ 1.1 µM) | 2 µg/mL (≈ 4.38 µM) | ≤ 0.125 µg/mL | 0.5 µg/mL (≈ 1.1 µM) | 0.125 µg/mL (≈ 0.274 µM) | 4 µg/mL (≈ 8.76 µM) |  |  |  |  |  | 
OC(CN1CCC(c2nnc(-c3ccncc3)o2)CC1)(Cn1cncn1)c1ccc(F)cc1F (configuration not stated) | 16 µg/mL (≈ 34.2 µM) | 16 µg/mL (≈ 34.2 µM) | 32 µg/mL (≈ 68.5 µM) | 4 µg/mL (≈ 8.56 µM) | 16 µg/mL (≈ 34.2 µM) | 2 µg/mL (≈ 4.28 µM) | 4 µg/mL (≈ 8.56 µM) |  |  |  |  |  | 
OC(CN1CCC(c2nc(-c3ccc(F)cc3)no2)CC1)(Cn1cncn1)c1ccc(F)cc1F (configuration not stated) | 2 µg/mL (≈ 4.13 µM) | 2 µg/mL (≈ 4.13 µM) | 4 µg/mL (≈ 8.26 µM) | 1 µg/mL (≈ 2.06 µM) | 2 µg/mL (≈ 4.13 µM) | 0.5 µg/mL (≈ 1.03 µM) | 1 µg/mL (≈ 2.06 µM) |  |  |  |  |  | 
OC(Cn1cncn1)(Cn1cncn1)c1ccc(F)cc1F [FLUCONAZOLE] | 2 µg/mL (≈ 6.53 µM) | 4 µg/mL (≈ 13.1 µM) | 2 µg/mL (≈ 6.53 µM) | 0.25 µg/mL (≈ 0.816 µM) | 4 µg/mL (≈ 13.1 µM) | 0.25 µg/mL (≈ 0.816 µM) | 32 µg/mL (≈ 104 µM) | 512 µg/mL (≈ 1670 µM) | > 1020 µg/mL | 256 µg/mL (≈ 836 µM) | > 1020 µg/mL | 256 µg/mL (≈ 836 µM) | > 1020 µg/mL
OC(CN1CCC(c2nc(-c3cccnc3)no2)CC1)(Cn1cncn1)c1ccc(F)cc1F (configuration not stated) | 0.25 µg/mL (≈ 0.535 µM) | 0.125 µg/mL (≈ 0.267 µM) | 1 µg/mL (≈ 2.14 µM) | 0.125 µg/mL (≈ 0.267 µM) | 0.125 µg/mL (≈ 0.267 µM) | 0.063 µg/mL (≈ 0.135 µM) | 0.5 µg/mL (≈ 1.07 µM) |  |  |  |  |  | 
OC(CN1CCC(c2nnc(-c3ccc(F)cc3)o2)CC1)(Cn1cncn1)c1ccc(F)cc1F (configuration not stated) | 0.5 µg/mL (≈ 1.03 µM) | 1 µg/mL (≈ 2.06 µM) | 2 µg/mL (≈ 4.13 µM) | ≤ 0.125 µg/mL | 1 µg/mL (≈ 2.06 µM) | 0.063 µg/mL (≈ 0.13 µM) | 2 µg/mL (≈ 4.13 µM) |  |  |  |  |  | 
O=[N+]([O-])c1ccc(-c2nnc(C3CCN(CC(O)(Cn4cncn4)c4ccc(F)cc4F)CC3)o2)cc1 (configuration not stated) | 2 µg/mL (≈ 3.91 µM) | 4 µg/mL (≈ 7.82 µM) | 2 µg/mL (≈ 3.91 µM) | 1 µg/mL (≈ 1.96 µM) | 4 µg/mL (≈ 7.82 µM) | 0.25 µg/mL (≈ 0.489 µM) | 2 µg/mL (≈ 3.91 µM) |  |  |  |  |  | 
OC(CN1CCC(c2nc(-c3cccs3)no2)CC1)(Cn1cncn1)c1ccc(F)cc1F (configuration not stated) | 2 µg/mL (≈ 4.23 µM) | 2 µg/mL (≈ 4.23 µM) | 1 µg/mL (≈ 2.12 µM) | 1 µg/mL (≈ 2.12 µM) | 2 µg/mL (≈ 4.23 µM) | 0.063 µg/mL (≈ 0.133 µM) | 2 µg/mL (≈ 4.23 µM) |  |  |  |  |  | 
OC(CN1CCC(c2nc(-c3ccc(C(F)(F)F)cc3)no2)CC1)(Cn1cncn1)c1ccc(F)cc1F (configuration not stated) | 4 µg/mL (≈ 7.48 µM) | 2 µg/mL (≈ 3.74 µM) | 4 µg/mL (≈ 7.48 µM) | 2 µg/mL (≈ 3.74 µM) | 2 µg/mL (≈ 3.74 µM) | 0.5 µg/mL (≈ 0.935 µM) | 2 µg/mL (≈ 3.74 µM) |  |  |  |  |  | 
OC(CN1CCC(c2nc(-c3ccco3)no2)CC1)(Cn1cncn1)c1ccc(F)cc1F (configuration not stated) | 1 µg/mL (≈ 2.19 µM) | 1 µg/mL (≈ 2.19 µM) | 2 µg/mL (≈ 4.38 µM) | 0.5 µg/mL (≈ 1.1 µM) | 1 µg/mL (≈ 2.19 µM) | 0.063 µg/mL (≈ 0.138 µM) | 2 µg/mL (≈ 4.38 µM) |  |  |  |  |  | 
OC(CN1CCC(c2nc(-c3ccsc3)no2)CC1)(Cn1cncn1)c1ccc(F)cc1F (configuration not stated) | 4 µg/mL (≈ 8.47 µM) | 4 µg/mL (≈ 8.47 µM) | 4 µg/mL (≈ 8.47 µM) | 2 µg/mL (≈ 4.23 µM) | 4 µg/mL (≈ 8.47 µM) | 0.5 µg/mL (≈ 1.06 µM) | 4 µg/mL (≈ 8.47 µM) |  |  |  |  |  | 
